Some test systems named below: NCI-H23 lung; SF-295 CNS; NCI/ADR-RES ovarian; HCT-116 colon; KM12 colon.
Assay in all cases: DTP human tumour cell line panel, 48 h

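Exposure lasted 48 hours, with cells grown in 96-well plates and compounds tested at five concentrations. TGI is the concentration that stops growth completely.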 Where only a bound is given, the exact number is not on record here.

By TGI is commonly meant the concentration at which net growth stops. Lower therefore signals more potent growth arrest.

As for `O=[N+]([O-])C1CC/C(=N/O)c2nonc21` (stereo unspecified), the TGI with NCI-H23 lung, with SF-295 CNS, in the test on NCI/ADR-RES ovarian, in the test with HCT-116 colon and in the test with KM12 colon was over 10 µM each time.
With `CCOC(=O)C1=CNC(C(=O)OCC)C1c1cccn1-c1ccc(Cl)cc1[N+](=O)[O-]` (stereo unspecified), the concentration for total growth inhibition (TGI) is over 100 µM in the test on NCI-H23 lung; 31.3 µM in the test on SF-295 CNS; 62.5 µM with NCI/ADR-RES ovarian; 35.7 µM in the test on HCT-116 colon; 47.5 µM in the test on KM12 colon.
On the same counts, the results for `O=C(NCCC1([N+](=O)[O-])CCN(C(=O)c2ccccc2)CC1)c1ccccc1` are over 100 µM, over 100 µM, over 100 µM, over 100 µM and over 100 µM.
For `CCOC(=O)c1ccc(Nc2c3c(nc4ccccc24)CCCC3)cc1`, the TGI in the test on NCI-H23 lung, with SF-295 CNS, in the test on NCI/ADR-RES ovarian, with HCT-116 colon and with KM12 colon was over 100 µM throughout.
In the case of `CC(=O)N=C1N(/C=C2\C(=O)Oc3ccccc3C2=O)C(=O)/C(=C/c2ccc(OC(C)=O)cc2)N1C`, the TGI in the test on NCI-H23 lung, with SF-295 CNS, in the test with NCI/ADR-RES ovarian, in the test with HCT-116 colon and with KM12 colon was over 100 µM throughout.
For `CCCCC(C#N)(OP1(=O)OC(c2ccccc2)C(C)N1C)c1ccccc1` (stereo unspecified), the total growth inhibition concentration (TGI) with NCI-H23 lung turned out to be 41.9 µM; in the test with SF-295 CNS, 32.3 µM; in the test with NCI/ADR-RES ovarian, 52 µM; with HCT-116 colon, 30.4 µM; in the test with KM12 colon, 37.2 µM.
Consider `COC(=O)CCC(=O)NC1=C(Nc2ccc(OC)cc2)C(=O)c2ccccc2C1=O`, for which the TGI in the test with NCI-H23 lung was 22.7 µM; in the test with SF-295 CNS, 25.8 µM; in the test on NCI/ADR-RES ovarian, 60.3 µM; in the test with HCT-116 colon, 25 µM; in the test on KM12 colon, 45.5 µM.
On the same counts, the results for `COC(=O)c1c(O)ccc2c1c1c(n2Cc2ccccc2Cl)C(=O)c2ccccc2C1=O` are 29.8 µM, 31.6 µM, 39.3 µM, 31.2 µM and 24.1 µM.
With `CC(O)c1cc2c(s1)C(=O)c1sccc1C2=O` (stereo unspecified), the TGI in the test with SF-295 CNS amounted to 0.191 µM; with NCI/ADR-RES ovarian, 0.59 µM; in the test with HCT-116 colon it was 0.485 µM; in the test on KM12 colon it was 0.593 µM.
In the case of `CCCCC(=O)NS(=NC(=O)c1ccccc1)C(Cl)(Cl)Cl` (stereo unspecified), the TGI in the test on NCI-H23 lung, with SF-295 CNS, in the test with NCI/ADR-RES ovarian, in the test on HCT-116 colon and with KM12 colon was over 100 µM throughout.
For `COC(=O)C1C/C(=C/N(C)C)C(=S)N1` (stereo unspecified), the TGI in the test on NCI-H23 lung, with SF-295 CNS, in the test with NCI/ADR-RES ovarian, in the test with HCT-116 colon and in the test on KM12 colon was over 100 µM each time.
As for `C[C@H](CCC(=O)NCCS(=O)(=O)O)[C@H]1CC[C@H]2[C@@H]3CC[C@@H]4C[C@H](O)CC[C@]4(C)[C@H]3CC[C@]12C`, the TGI in the test on NCI-H23 lung, with SF-295 CNS, in the test with NCI/ADR-RES ovarian, in the test on HCT-116 colon and in the test on KM12 colon was over 100 µM in each case.
Consider `Nc1nc(Cl)c(N)c(NCC2(CO)CC(OCc3ccccc3)C2)n1` (stereo unspecified), for which the concentration for total growth inhibition (TGI) in the test with NCI-H23 lung, with SF-295 CNS, in the test on NCI/ADR-RES ovarian, with HCT-116 colon and in the test on KM12 colon was over 100 µM throughout.
Regarding `Cc1c(Cl)nc(Nc2nc3ccccc3[nH]2)nc1Cl`, the TGI in the test with NCI-H23 lung was over 100 µM; with SF-295 CNS, over 100 µM; with NCI/ADR-RES ovarian, over 100 µM; with HCT-116 colon, over 100 µM; with KM12 colon, 41.6 µM.
`O=C1CCC2(CC1CC(Sc1ccccc1)Sc1ccccc1)OCCO2` (stereo unspecified): the TGI in the test on NCI-H23 lung, with SF-295 CNS, in the test with NCI/ADR-RES ovarian and in the test with KM12 colon was over 100 µM each time.
With `C[C@]12CC[C@H]3[C@@H](CC=C4C[C@@H](N5CCCC5)CC[C@@]43C)[C@@H]1C[C@H](N1CCOCC1)[C@@H]2O`, the TGI with NCI-H23 lung, with SF-295 CNS, with NCI/ADR-RES ovarian, in the test with HCT-116 colon and in the test with KM12 colon was over 100 µM in each case.
For the compound `O=C1CC2(c3ccccc3)ON=C(c3ccccc3)N2c2ccccc2N1` (stereo unspecified), the TGI in the test on NCI-H23 lung, in the test on SF-295 CNS, in the test on NCI/ADR-RES ovarian, in the test with HCT-116 colon and in the test on KM12 colon was over 100 µM each time.
For `CCSc1sc(=Nc2ccc(N=c3sc(C)c(SC)s3)cc2)sc1-c1ccc(C)cc1`, the TGI in the test on NCI-H23 lung, in the test with SF-295 CNS, in the test with NCI/ADR-RES ovarian, in the test with HCT-116 colon and in the test with KM12 colon was over 100 µM throughout.
Regarding `CCOC(=O)c1cc(-c2cc(OC)c(OC)c([N+](=O)[O-])c2)c([N+](=O)[O-])n1C`, the TGI with NCI-H23 lung, in the test on SF-295 CNS, in the test on NCI/ADR-RES ovarian, with HCT-116 colon and in the test on KM12 colon was over 10 µM in each case.
For `COc1ccc2c(CCN)c(C(=O)O)[nH]c2c1`, the TGI in the test on NCI-H23 lung, with SF-295 CNS, in the test on NCI/ADR-RES ovarian, in the test on HCT-116 colon and in the test on KM12 colon was over 100 µM in each case.
As to `CCCN1C(=O)CC(C)N(Cc2ccccc2Cl)C1=S` (stereo unspecified), the TGI with NCI-H23 lung was 56.7 µM; with SF-295 CNS it was over 100 µM; in the test on NCI/ADR-RES ovarian, 53.1 µM; with HCT-116 colon, 79.4 µM; with KM12 colon, 92.5 µM.
As for `O=C(c1ccco1)N1CCCN(C(=O)c2ccco2)C1=S`, the TGI with NCI-H23 lung, in the test with NCI/ADR-RES ovarian, in the test on HCT-116 colon and in the test on KM12 colon was over 100 µM each time.
With `COc1cc(C2c3cc4c(cc3[C@@H](Nc3ccccc3)C3COC[C@H]23)OCO4)cc(OC)c1O` (stereo partly specified), the TGI in the test with SF-295 CNS is 3.36 µM; in the test with NCI/ADR-RES ovarian, over 100 µM; in the test with HCT-116 colon, 19.8 µM; in the test on KM12 colon, 32.5 µM.

(Values after PubChem BioAssay (NCI).)
